In ChEMBL document CHEMBL1139541 (J Med Chem, 2005):
pKi: −log10 of the molar value.

How the values were obtained:
[1] = target: T1, Melatonin receptor type 1B (Homo sapiens) (UniProt P49286); assay: Intrinsic activity in [35S]GTP-gamma-S, binding at human melatonin receptor MT2 relative to melatonin; assay type: functional
T1 sequence (whole entry): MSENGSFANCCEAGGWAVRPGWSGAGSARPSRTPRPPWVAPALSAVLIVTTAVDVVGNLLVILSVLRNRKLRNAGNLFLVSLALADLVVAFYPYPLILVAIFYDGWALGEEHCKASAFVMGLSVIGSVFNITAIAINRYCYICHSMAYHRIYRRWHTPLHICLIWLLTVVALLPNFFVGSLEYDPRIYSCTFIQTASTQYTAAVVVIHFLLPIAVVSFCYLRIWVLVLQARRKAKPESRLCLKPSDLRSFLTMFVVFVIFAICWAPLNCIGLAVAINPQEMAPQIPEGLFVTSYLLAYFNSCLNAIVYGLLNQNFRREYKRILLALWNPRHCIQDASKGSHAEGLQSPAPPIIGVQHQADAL

[2] = target: Melatonin receptor type 1A (Homo sapiens, UniProt P48039); assay: Inhibition of 2-[125I]iodomelatonin binding to human melatonin receptor type 1A (MT1) expressed in […] cells; assay type: cell-based
Chain of Melatonin receptor type 1A (P48039 whole entry): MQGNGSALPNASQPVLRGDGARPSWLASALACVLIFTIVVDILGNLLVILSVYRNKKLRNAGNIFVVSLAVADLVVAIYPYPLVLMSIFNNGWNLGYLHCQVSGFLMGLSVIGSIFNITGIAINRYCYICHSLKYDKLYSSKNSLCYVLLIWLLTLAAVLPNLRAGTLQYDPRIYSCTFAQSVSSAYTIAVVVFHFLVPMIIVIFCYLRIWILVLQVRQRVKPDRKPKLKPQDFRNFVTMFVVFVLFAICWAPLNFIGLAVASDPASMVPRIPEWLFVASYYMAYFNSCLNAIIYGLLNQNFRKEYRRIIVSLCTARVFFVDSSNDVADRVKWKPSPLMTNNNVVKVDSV

[3] = target: T2, Melatonin receptor type 1B (Homo sapiens, UniProt P49286); assay: Inhibition of 2-[125I]iodomelatonin binding to human melatonin receptor MT2 expressed in […] cells; assay type: cell-based
T2 sequence (P49286 whole entry): T1 sequence (whole entry)

IA [1] | pKi [2] | pKi [3] | Structure (SMILES)
0.01 | – | – | CCC(=O)NCc1cc2c(OC)cccc2n1Cc1ccc(Cl)cc1
0.08 | < 5.00 | 6.54 | CCC(=O)NCc1cc2c(OC)cccc2n1S(=O)(=O)c1ccccc1
– | 6.98 | 10.80 | CCC(=O)NC1Cc2ccccc2C(c2ccccc2)C1 (centres undefined)
– | < 6.00 | 8.01 | COc1cc2c(cc1OC)C(CC(c1ccccc1)c1ccccc1)N(C(C)=O)CC2 (centres undefined)
0.16 | < 5.00 | 5.22 | CCC(=O)NCc1cc2c(OC)cccc2n1Cc1c(C)cccc1C
-0.08 | < 5.00 | 5.74 | CCC(=O)NCc1cc2c(OC)cccc2n1C(=O)c1ccc(Cl)cc1
